# From patent US20060241099A1 (Pliva-Istrazivacki Institut d.o.o., priority 2003, published 2006)
# Legend:
# 5-HT2A receptor = target: T1, 5-HT2A receptor (Homo sapiens, UniProt P28223); assay: radioligand binding assay for 5-HT2A receptor ([3H]-ketanserin); conditions: human cortex or recombinant 5-HT2A receptor expressed in CHO-K1 cells; for IC50: read-out: binding affinity to 5-HT2A serotonin receptor expressed as IC50 value; for Ki: read-out: binding affinity to 5-HT2A serotonin receptor, Ki value
# T1 construct: expressed in transfected cells; host or cells: CHO-K1 (or human cortex tissue)
# Description: (§1) The effect of the compounds of the present invention on the neurochemical steady state was determined by in vitro investigations such as a radionuclide-marked radioligand binding assay for 5-HT2A (Bonhaus D. W. Br. J. Pharmacol. 1995, 115:622; Saucier C. J. Neurochem. 1997, 68:1998) and 5-HT2C receptors (Wolf W. A. J. Neurochem. 1997, 69:1449), in vitro binding assay for al receptor (Thomson W. and Donn R. Arthritis Res. 2002, 4: 302-306) and by in vivo investigations in a tail suspension test (Vogel H. G. and Vogel W. H. Drug Discovery and Evaluation Pharmacological Assays, Springer 1997, 304), in amphethamine-induced hyperlocomotion in mice (Millan M. J. et al, 1998 J Pharmacol. Exp. Ther. 287: 167-186) in a forced swim test in mice (Porsolt R. D. et al. Arch. Int. Pharmacodyn. 1977, 229:327-336), in meta-chlorophenyl piperazine (m-CPP) test on rats (Drug Dev. Res. 1989, 18:119-144) and in apomorphine, tryptamine, norepinephrine (ATN) test in rats (Arch. Int. Pharmacodyn. 1977, 227:238-253).
# (§2) A small concentration of a radioligand having a great affinity for binding to a receptor was incubated with a tissue sample enriched with a certain receptor (1-5 mg of tissue) in a buffered medium (0.2-5 μL). Recombinant human HT2A and HT2C receptors were expressed in CHO-K1 or COS-7 cells and were also used for competitive binding. During incubation the radioligand bound to the receptor. When a binding balance was achieved, the receptors to which the radioligand was bound were separated from those to which said ligand was not bound, and the radioactivity of the receptor/radioligand complex was measured. The interaction of the tested compounds with receptors was tested in competitive binding experiments. Various concentrations of tested compounds were added to the incubation mixture containing a prepared tissue enriched with corresponding receptors and the radioligand. The radioligand binding was inhibited by the test compounds proportionally to the affinity of a certain compound for the receptor and to the concentration of the compound.
# The radioligand used for the determination of binding to 5-HT2A receptor was [^3H]-ketanserin and the tissue used was human cortex or recombinant 5-HT2A receptor expressed in CHO-K1 cells.
# 5-HT2C receptor = target: T2, 5-HT2C receptor (Homo sapiens, UniProt P28335); assay: radioligand binding assay for 5-HT2C receptor ([3H]-mesulergine); conditions: choroid plexus or recombinant 5-HT2C receptor expressed in CHO-K1 cells; for IC50: read-out: binding affinity to 5-HT2C serotonin receptor expressed as IC50 value; for Ki: read-out: binding affinity to 5-HT2C serotonin receptor, Ki value
# T2 construct: expressed in transfected cells; host or cells: CHO-K1 (or choroid plexus tissue)
# T2 sequence (P28335 33-458): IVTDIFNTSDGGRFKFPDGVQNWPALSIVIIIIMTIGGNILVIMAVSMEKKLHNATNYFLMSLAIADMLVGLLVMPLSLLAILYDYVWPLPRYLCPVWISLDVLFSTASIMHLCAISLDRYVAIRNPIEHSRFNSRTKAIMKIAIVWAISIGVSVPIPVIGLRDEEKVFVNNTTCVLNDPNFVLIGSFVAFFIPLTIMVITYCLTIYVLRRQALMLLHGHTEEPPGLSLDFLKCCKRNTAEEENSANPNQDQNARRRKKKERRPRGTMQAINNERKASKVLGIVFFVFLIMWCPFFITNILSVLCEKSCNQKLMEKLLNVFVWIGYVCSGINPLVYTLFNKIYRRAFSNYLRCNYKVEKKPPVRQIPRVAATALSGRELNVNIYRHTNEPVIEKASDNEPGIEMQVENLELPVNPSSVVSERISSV
# Description: as §1, §2
# The radioligand used for the determination of binding to 5-HT2C receptor was [^3H]-mesulergine and the tissue used was choroid plexus or recombinant 5-HT2C receptor expressed in CHO-K1 cells.
# σ1 receptor = target: T3, σ1 receptor (Homo sapiens, UniProt Q99720); assay: in vitro binding affinity to σ1 receptor, Jurkat cell membranes, [3H]haloperidol; conditions: for IC50: read-out: binding affinity to σ1 receptor expressed as IC50 value
# T3 construct: endogenous in cells; host or cells: Jurkat cell membranes
# Description: as §1
# Jurkat cell were grown in medium, RPMI supplemented with 10% fetal bovine serum, 100 U/ml penicillin and 100 μg/ml streptomycin, collected and their suspension homogenized. After centrifugation, the membrane fraction was separated, resuspended in phosphate buffer (pH=7.5) and stored in small aliquots in liquid nitrogen until use. Binding of different radiolabeled ligands to Jurkat cell membranes was measured as described previously (Ramamoorthy et al., 1995). To characterize the σ binding sites in the Jurkat cell line, [^3H]haloperidol was first used as the ligand. Haloperidol is a high affinity ligand to both type 1 and type 2 σ-receptors. The binding assays were done using Jurkat cell membranes in the presence of [^3H]haloperidol ([…]) alone to determine the total binding, and in the presence of [^3H]haloperidol (10 nM) and unlabeled haloperidol (10 μM) to determine the nonspecific binding. Membranes were incubated with ligands in phosphate buffer for 3 hours at room temperature. After the filter had been washed, radioactivity associated with the filter was determined by liquid scintillation spectrometry.
# mice = assay: amphetamine-induced hyperlocomotion in mice; type: in vivo; conditions: male Swiss OFA mice, per os in saline, test doses of 1 mg/kg and 0,1 mg/kg, dexamphetamine sulphate 2 mg/kg i.p.
# Description: Male Swiss OFA mice of a weight 30-35 g were treated with either vehicle (saline) or test compounds 30 minutes prior to hyperlocomotion induction. Dexamphetamine sulphate was administered intraperitoneally at 2 mg/kg. Thirty minutes later, animals were placed in a wooden box 80×80 cm^2 in a room with low light intensity (100 lux) for locomotor activity recording. Locomotor activity was determined during a 30 min period using a video image analyzer. Total duration of movement, occurence of movement and total distance travelled were measured. Haloperidol was tested at the dose of 0,25 mg/kg (prepared in 0.5% methylcellulose) and served as reference substance.
# Compounds were considered as active if in a dose of 10 mg/kg reduced amphetamine-induced hyperlocomotion in experimental animals for 30% and more when compared to vehicle treated control group.
# T3 sequence (Q99720 whole entry): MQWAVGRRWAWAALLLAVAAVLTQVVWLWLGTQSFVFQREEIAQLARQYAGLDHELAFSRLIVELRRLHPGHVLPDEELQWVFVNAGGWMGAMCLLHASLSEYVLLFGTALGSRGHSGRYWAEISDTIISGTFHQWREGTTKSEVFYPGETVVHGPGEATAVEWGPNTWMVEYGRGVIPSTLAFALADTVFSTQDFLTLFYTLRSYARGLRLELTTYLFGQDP
# T1 sequence (P28223 whole entry): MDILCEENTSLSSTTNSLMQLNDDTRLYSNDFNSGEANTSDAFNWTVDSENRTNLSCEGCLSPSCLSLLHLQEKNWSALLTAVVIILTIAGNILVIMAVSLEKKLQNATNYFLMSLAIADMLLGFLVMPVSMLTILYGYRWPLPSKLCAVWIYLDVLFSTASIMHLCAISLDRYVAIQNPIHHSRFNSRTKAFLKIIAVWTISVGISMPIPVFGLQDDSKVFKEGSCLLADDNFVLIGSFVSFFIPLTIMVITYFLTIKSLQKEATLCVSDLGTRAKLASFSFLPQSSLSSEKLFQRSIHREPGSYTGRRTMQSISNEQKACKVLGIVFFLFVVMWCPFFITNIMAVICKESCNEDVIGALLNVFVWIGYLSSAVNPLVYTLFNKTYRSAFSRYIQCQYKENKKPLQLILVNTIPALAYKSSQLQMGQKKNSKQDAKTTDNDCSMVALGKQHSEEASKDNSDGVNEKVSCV
IC50 (5-HT2A receptor) [nM],Ki (5-HT2A receptor) [nM],IC50 (5-HT2C receptor) [nM],Ki (5-HT2C receptor) [nM],Ki (σ1 receptor) [nM],IC50 (σ1 receptor) [nM],Molecule,inhibition of amphetamine-induced hyperlocomotion (mice)
< 200,< 100,< 200,< 100,–,–,"CN(C)CCCOCc1scc2c1-c1ccccc1Oc1ccccc1-2 [dimethyl-[3-(8-oxa-2-thia-dibenzo[e,h]azulen-1-ylmethoxy)-propyl]-amine]",–
< 200,< 100,< 200,< 100,< 100,< 200,"CN(C)CCOCc1scc2c1-c1ccccc1Oc1ccc(Cl)cc1-2 [[2-(5-chloro-8-oxa-2-thia-dibenzo[e,h]azulen-1-ylmethoxy)-ethyl]-dimethyl-amine]",–
< 200,< 100,< 200,< 100,< 100,< 200,"CN(C)CCOCc1scc2c1-c1ccccc1Oc1ccccc1-2 [dimethyl-[2-(8-oxa-2-thia-dibenzo[e,h]azulen-1-ylmethoxy)-ethyl]-amine]",–

# The remaining lines, values behind:
Molecule,IC50 (5-HT2A receptor) [nM],Ki (5-HT2A receptor) [nM],IC50 (5-HT2C receptor) [nM],Ki (5-HT2C receptor) [nM],Ki (σ1 receptor) [nM],IC50 (σ1 receptor) [nM],inhibition of amphetamine-induced hyperlocomotion (mice)
NCCCOCc1scc2c1-c1cc(Cl)ccc1Oc1ccccc1-2,< 200,< 100,< 200,< 100,–,–,–
"NCCCOCc1scc2c1-c1ccccc1Oc1ccccc1-2 [3-(8-oxa-2-thia-dibenzo[e,h]azulen-1-ylmethoxy)-propylamine]",< 200,< 100,< 200,< 100,–,–,–
"CN(C)CCCOCc1scc2c1-c1ccccc1Sc1ccccc1-2 [[3-(2,8-dithia-dibenzo[e,h]azulen-1-ylmethoxy)-propyl]-dimethyl-amine]",< 200,< 100,< 200,< 100,< 100,< 200,–
"CN(C)CCOCc1scc2c1-c1ccccc1Sc1ccccc1-2 [[2-(2,8-dithia-dibenzo[e,h]azulen-1-ylmethoxy)-ethyl]-dimethyl-amine]",< 200,< 100,< 200,< 100,< 100,< 200,–
"[2-(2,8-dithia-dibenzo[e,h]azulen-1-ylmethoxy)-ethyl]-dimethyl-ammonium citrate",–,–,–,–,–,–,40-60%
